In patent US10799522B2, “Compositions and methods relating to galectin detection” (Wayne State University, priority 2015, dated 2020):

System: orthotopic human breast carcinoma xenograft (MCF10DCIS)
Experiment: dynamic PET/CT imaging, pharmacokinetics and biodistribution in tumor-bearing mice
Type: in vivo, immunedeficient nu/nu mice
Conditions: 10 mg/kg i.v. 15 min prior to [^18F]FPDTG; at 60 min post injection
Method: A single (unilateral) orthotopic breast carcinoma xenograft was established in immunedeficient nu/nu mice by injection of human breast ductal carcinoma in situ cells (MCF10DCIS) in Matrigel into one of the upper mammary fat pad.
Tumor-bearing mice (˜20-25 g) were anesthetized using inhalation of 2% isoflurane in oxygen, and their body temperature maintained at 38° C. by a heating pad with a feedback temperature control. […] Dynamic PET images were acquired in list-mode and reconstructed using OSEM algorithm at multiple time frames post radiotracer administration (0-2, 2-4, 4-6, 6-8, 8-10, 10-20, 20-30, 30-40, 40-50, 50-60 min). Thereafter, while still fixed to the positioning bed, the mice were moved with the bed into the gantry of INVEON SPECT/CT (Siemens), and CT images were acquired over the whole body area for attenuation correction of PET images and for production of PET/CT images. PET/CT fusion images were generated and analyzed in a similar manner as when studying rats.

Q: How did the “blockade of the radiotracer uptake and retention in DCIS lesion” value turn out when `OC[C@H]1O[C@@H](S[C@@H]2O[C@H](CO)[C@H](O)[C@H](n3cc(-c4cccc(F)c4)nn3)[C@H]2O)[C@H](O)[C@@H](n2cc(-c3cccc(F)c3)nn2)[C@H]1O` [FPTDG, bis-{3-deoxy-3-[4-(3-fluorophenyl)-1H-1,2,3-triazol-1-yl]-β-D-galactopyranosyl)sulfane, reference compound] was run?
A: The value was > 90%.
